# According to PubChem BioAssay AID1645865 (Buhrlage Lab, Dana-Farber Cancer Institute and Novartis …, 2021):
# pIC50: −log10 of the molar value. Active and inactive are the calls of the source.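 How the source made its calls: active means maximal inhibition of the USP30 enzyme reaching 30% or more across the dose series; inactive means the rest.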
# Target: Ubiquitin carboxyl-terminal hydrolase 30 (Homo sapiens) (UniProt Q70CQ3)
# Assay: ubiquitin-specific protease 30 DUB inhibitors, concentration-effect, biochemical, validation of primary actives (AID 1645865)
# Settings: purified USP30, Ub-rhodamine cleavage, fluorescence, 2 h
# Chain of Ubiquitin carboxyl-terminal hydrolase 30 (Homo sapiens) (Q70CQ3 whole entry, looked up): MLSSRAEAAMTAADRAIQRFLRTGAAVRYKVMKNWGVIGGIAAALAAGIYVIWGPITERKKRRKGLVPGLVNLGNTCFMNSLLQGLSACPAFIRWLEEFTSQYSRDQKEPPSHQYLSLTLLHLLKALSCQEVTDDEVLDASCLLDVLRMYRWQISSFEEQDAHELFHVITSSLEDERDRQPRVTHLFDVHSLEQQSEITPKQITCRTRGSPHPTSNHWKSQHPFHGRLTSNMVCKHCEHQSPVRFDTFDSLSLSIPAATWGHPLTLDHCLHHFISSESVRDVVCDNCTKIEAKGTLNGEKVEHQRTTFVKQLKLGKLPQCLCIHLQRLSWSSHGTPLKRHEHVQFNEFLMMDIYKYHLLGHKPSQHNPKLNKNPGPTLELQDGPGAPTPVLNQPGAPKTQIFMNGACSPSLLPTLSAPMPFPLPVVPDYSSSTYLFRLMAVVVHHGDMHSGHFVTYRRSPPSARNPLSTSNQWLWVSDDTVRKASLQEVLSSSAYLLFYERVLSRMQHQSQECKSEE
Compound,pIC50,IC50
Cn1cc(-c2cnc(-c3cccc(F)c3)nc2)cc1C(=O)NCc1cccnc1,4.51,
Cn1c(SCc2ccccc2)nnc1-c1csc(-c2ccccc2)n1,4.65,
COCCNC(=O)c1ccn(-c2ccc3ccc(-c4ccncc4)cn23)n1,,> 50 µM (inactive)
CCCCc1nc2sc3c(NCCN4CCOCC4)ncnc3c2c2c1CCC2,,> 50 µM (inactive)
COC(=O)c1sc2ccccc2c1NC(=O)c1ccc(Br)s1,4.67,
CSc1nc(Cc2ccc(Cl)cc2)nc2ccccc12,,> 50 µM (inactive)
CCOC(=O)c1sc2c(c1C)c(=O)n(Cc1ccccc1)c(=O)n2CC(N)=O,4.34,
Cc1ccc(NC(=O)/C=C/c2cccc(C(F)(F)F)c2)c(O)c1,5.28,
C[C@@H]1O[C@@H](O[C@H]2[C@H](O[C@H]3[C@H](O[C@H]4CC[C@@]5(C)[C@@H](CC[C@]6(C)[C@@H]5CC=C5[C@@H]7CC(C)(C)CC(=O)[C@]7(C)CC[C@]56C)[C@@]4(C)CO)O[C@H](C(=O)O)[C@@H](O)[C@@H]3O)OC[C@@H](O)[C@@H]2O)[C@H](O)[C@H](O)[C@H]1O,,> 50 µM (inactive)
Cc1cc(C)c2sc(N(CCCn3ccnc3)C(=O)Cc3ccccc3)nc2c1,4.76,
Cc1nc(C(=O)NC2(O)C(=O)c3ccccc3C2=O)cs1,4.64,
CCc1ccc2[nH]c(=O)c(CN(CCc3ccc(OC)c(OC)c3)C(=O)Nc3ccccc3)cc2c1,,> 50 µM (inactive)
CC(CCc1ccccc1)NC(=O)C(=O)c1cn(CC(=O)N2CCOCC2)c2ccccc12 (stereo unspecified),,> 50 µM (inactive)
CC1Oc2cc3c(-c4c(O)cc(O)c5c(O)c6c(cc45)OC(C)C(C)C6=O)c(O)cc(O)c3c(O)c2C(=O)C1C (stereo unspecified),5.30,
CCC[C@H]1O[C@@H]2CC(=O)O[C@@H]2C2=C1C(=O)c1c(O)cccc1C2=O,,> 50 µM (inactive)
Cc1cc(C)c2cc(CN(CCc3ccccc3)C(=O)Nc3ccccc3)c(=O)[nH]c2c1,,> 50 µM (inactive)
CCOc1ccccc1C(=O)NCC(=O)OC(C(=O)c1c[nH]c2ccccc12)c1ccccc1 (stereo unspecified),,> 50 µM (inactive)
O=C(CC1C(=O)N(Cc2ccccc2)c2nc3ccccc3n21)NCCc1ccccc1 (stereo unspecified),4.71,

Compound,pIC50,IC50
O=C(NC(Cc1ccccc1)c1nc2ccccc2[nH]1)c1ccccn1 (stereo unspecified),,> 50 µM (inactive)
FC(F)(F)c1ccccc1CCN1CCc2nc3ccc(Cl)cc3cc2C1,,> 50 µM (inactive)
O=C(CSc1nnnn1-c1ccccc1)Nc1ccccc1,4.50,
CCn1ccc2c(cc(C(=O)Nc3cc(F)ccc3F)n2C)c1=O,,> 50 µM (inactive)
CC(C)=CCC/C(C)=C/Cc1c(O)cc2c(c1O)C(=O)OC2,5.91,
Cc1cc(C)c2c(-n3cccc3)c(C(=O)NCCc3ccc(S(N)(=O)=O)cc3)sc2n1,,> 50 µM (inactive)
CCOc1ccc(Nc2cc(C(=O)NCCc3ccccc3)c3ccccc3n2)cc1,4.87,
c1ccc(CCN2CCc3nc4cccnc4cc3C2)nc1,,> 50 µM (inactive)
O=c1[nH]c(-c2ccccn2)nc2c1CCN(Cc1cnn(-c3ccccc3)c1)C2,,> 50 µM (inactive)
Cc1cccc(NC(=O)CN2C(=O)CC(c3ccccc3)S(=O)(=O)c3ccccc32)c1C (stereo unspecified),4.66,
Fc1cccc(Cn2cc(-c3noc(-c4ccncc4)n3)nn2)c1,4.64,
Cc1c(C)n(-c2ccccc2)c2ncn(CC(=O)NC(C)c3ccccc3)c(=O)c12 (stereo unspecified),4.64,
CCCc1nc2sc3c(NCCc4ccc(OC)c(OC)c4)ncnc3c2c2c1CCC2,,> 50 µM (inactive)
O=c1[nH]cccc1NS(=O)(=O)c1ccc(F)cc1,,> 50 µM (inactive)
COc1ccc(CCNC(=O)CCn2c(=O)c3ccccc3n(Cc3ccc(C)cc3)c2=O)cc1OC,4.59,
CNC(=O)CC1NC(=O)c2csc(n2)-c2ccc(-c3nc(C4=NC(C(=O)N5CCCC5C(N)=O)CO4)cs3)nc2-c2csc(n2)-c2csc(n2)C(C(O)c2ccccc2)NC(=O)CNC(=O)c2nc(sc2COC)C(C(C)C)NC(=O)c2nc1sc2C (stereo unspecified),,> 50 µM (inactive)
O=c1c2ccccc2c(-c2nc(-c3ccncc3)no2)cn1-c1ccccc1,5.59,

# Other lines, results leading:
pIC50,IC50,Compound
4.60,,COCCCNC(=O)c1ccc(Cn2c(=O)c3ccccc3n(CC(=O)NC3CCCCC3)c2=O)cc1
,> 50 µM (inactive),Cc1cc(C)n(-c2cccc(C(=O)Nc3ccc4c(c3)CCN4S(C)(=O)=O)c2)n1
,> 50 µM (inactive),Cc1ccccc1Cn1cc(SCC(=O)Nc2ccc3c(c2)OCCO3)c2ccccc21
4.41,,Cc1nc(-c2noc(-c3ccncc3)n2)cn1CC(=O)N1CCN(c2ccc(F)cc2)CC1
5.58,,O=C(CC(C(=O)Nc1ccc2c(c1)OCO2)C(=O)c1ccccc1)Nc1ccc(Cl)cc1F (stereo unspecified)
,> 50 µM (inactive),O=C(Cc1ccccc1F)Nc1nc(-c2ccco2)c(-c2ccco2)s1
,> 50 µM (inactive),O=C(COC(=O)c1ccc(CN2CCCC2=O)cc1)c1ccc2c(c1)OCCO2
,> 50 µM (inactive),COc1ccccc1C(=O)NCC(c1ccc2c(c1)CCCN2C)N1CCCC1 (stereo unspecified)
,> 50 µM (inactive),NC(=O)Cn1c(=O)n(Cc2ccc(C(=O)NC3CCCC3)cc2)c(=O)c2ccccc21
,> 50 µM (inactive),CC1CCN(S(=O)(=O)c2ccc3[nH]cc(C(=O)NCc4ccco4)c(=O)c3c2)CC1
,> 50 µM (inactive),CC(=O)c1oc2nc3c(c(-c4ccc(Cl)cc4)c2c1N)CCc1ccccc1-3
,> 50 µM (inactive),COc1cccc(-n2c(=O)[nH]c3c(C(N)=O)nc(-c4ccc(OCc5ccccc5)cc4)nc32)c1
,> 50 µM (inactive),NC(=O)C1(N2CCCCC2)CCN(C(=O)c2[nH]nc3c2CCc2ccccc2-3)CC1
,> 50 µM (inactive),O=C(NC1CCN(Cc2ccccc2)CC1)c1[nH]nc2c1COc1ccccc1-2
5.69,,COc1cccc(NC(=O)c2cnc3c(c2)c(=O)n(C)c(=O)n3C)c1
,> 50 µM (inactive),Cc1nn(-c2ccc(Cl)cc2)c2[nH]c(=O)c(CNCC3CCCO3)cc12 (stereo unspecified)

pIC50,IC50,Compound
,> 50 µM (inactive),O=C(O)C1CCN(Cc2c(-c3ccco3)nc3ccc(Cl)cn23)CC1
4.39,,Cc1[nH]nc(NC(=O)C2COc3ccccc3O2)c1-c1ccccc1 (stereo unspecified)
,> 50 µM (inactive),O=C(NCc1ccncc1)C1CCN(c2cncnc2N2CCCCC2)CC1
4.58,,O=C(CSc1nnc(CNC(=O)c2ccccc2F)o1)Nc1ccc(OC(F)(F)F)cc1
,> 50 µM (inactive),O=C(Nc1ccc(-c2nnc3n2CCCCC3)cc1)c1ccc2c(c1)OCO2
4.59,,O=C(Nc1ccc(F)cc1F)NC1CCN(c2ccccc2)C1=O (stereo unspecified)
> 7.30,,CCc1nc(SCC(=O)Nc2ccccc2Cl)c2oc3ccccc3c2n1
5.47,,Cc1ccc(Cn2c(=O)c3ccccc3n3c(CCC(=O)N4CCN(c5ccccn5)CC4)nnc23)cc1
5.31,,Cc1ccc(C2=Nc3ccccc3N(CC(=O)Nc3cccc(C)c3C)C(=O)C2)cc1C
4.90,,CCCN1C=NS(=O)(=O)c2cc(C(=O)Nc3ccc(OC)c(Cl)c3)ccc21
4.82,,NC(=O)c1nnn(-c2ccc(NC(=O)c3ccc(F)c(F)c3)cc2)n1
4.75,,CNS(=O)(=O)c1ccc(CNC(=O)c2cc(-c3ccc(C)cc3)no2)cc1
4.49,,Cc1ccc(NC(=O)c2cc(-c3cccnc3)n(-c3ccccc3)n2)nc1
,> 50 µM (inactive),O=C(OCCCN1C(=O)c2cccc3c(N4CCCCC4)ccc(c23)C1=O)c1ccccn1
4.74,,COc1ccc(NS(=O)(=O)c2ccc(NC(=O)Nc3ccc(Cl)cc3)cc2)cc1
